# Assay results taken from patent US11578072B2, “Spiro-lactam NMDA receptor modulators and uses thereof” (Aptinyx Inc., priority 2018, dated 2023).
# Columns and labels:
# NMDAR2B = molecular target: T1, NMDAR2B (Homo sapiens, UniProt Q13224); assay: NMDAR agonist assay, [3H]MK-801 binding, NMDAR2B expressing HEK cell membranes; type: biochemical; conditions: 50 μM glutamate
# T1 construct: expressed in transfected cells; host or cells: HEK cells (membrane extract)
# Description: Assays were conducted as described by Moskal et al., “GLYX-13: a monoclonal antibody-derived peptide that acts as an N-methyl-D-aspartate receptor modulator,” Neuropharmacology, 49, 1077-87, 2005. These studies were designed to determine if the test compounds act to facilitate NMDAR activation in NMDAR2A, NMDAR2B, NMDAR2C or NMDAR2D expressing HEK cell membranes as measured by increases in [3H]MK-801 binding.
# In the assay, 300 μg of NMDAR expressing HEK cell membrane extract protein was preincubated for 15 minutes at 25° C. in the presence of saturating concentrations of glutamate (50 μM) and varying concentrations of test compound (1×10^−15M-1×10^−7M), or 1 mM glycine. Following the addition of 0.3 μCi of [3H]MK-801 (22.5 Ci/mmol), reactions were again incubated for 15 minutes at 25° C. (nonequilibrium conditions). Bound and free [3H]MK-801 were separated via rapid filtration using a Brandel apparatus.
# In analyzing the data, the DPM (disintegrations per minute) of [3H]MK-801 remaining on the filter were measured for each concentration of test compound or for 1 mM glycine. The DPM values for each concentration of a ligand (N=2) were averaged. The baseline value was determined from the best fit curve of the DPM values modeled using the GraphPad program and the log(agonist) vs. response(three parameters) algorithm was then subtracted from all points in the dataset. The % maximal [3H]MK-801 binding was then calculated relative to that of 1 mM glycine: all baseline subtracted DPM values were divided by the average value for 1 mM glycine. The EC50 and % maximal activity were then obtained from the best fit curve of the % maximal [3H]MK-801 binding data modelled using the GraphPad program and the log(agonist) vs. response(three parameters) algorithm.
# The tables below summarize the results for the wild type NMDAR agonists NMDAR2A, NMDAR2B, NMDAR2C, and NMDAR2D, and whether the compound is not an agonist (−), is an agonist (+), or is a strong agonist (++), where column A is based on the % maximal [3H]MK-801 binding relative to 1 mM glycine (−=0; <100%=+; and >100%=++); and column B is based on log EC50 values (0=−; >1×10^−9 M (e.g., −8)=+; and <1×10^−9 M (e.g., −10)++).
# [1] = IV pharmacokinetics in rats; conditions: Sprague Dawley, in vivo, rat, 2 mg/kg, normal saline
# Description: Sprague Dawley rats were dosed intravenously using a normal saline formulation containing 2 mg/kg of the compounds identified in the below table. The table below summarizes the results of the IV pharmacokinetics.
# [2] = Microsomal stability (Human); type: in vitro ADME; conditions: human microsomes, after 60 minutes
# Description: Microsomal stability of disclosed compounds was investigated. The following table indicates the percent of compound remaining after 60 minutes.
# Plasma stability (Human) = type: in vitro ADME; conditions: after 60 minutes
# Description: (§1) Plasma stability of disclosed compounds was investigated. The following table indicates the percent of compound remaining after 60 minutes.
# Plasma stability (Rat) = type: in vitro ADME; conditions: after 60 minutes
# Description: as §1
# Sprague Dawley rats = assay: Bennett nerve injury assay (mechanical analgesia, paw withdrawal threshold); type: in vivo
# Description: The Bennett model of mechanical analgesia is used to assess the analgesic effects of compounds as measured by paw withdrawal threshold. Bennett G J, Xie Y K, “A peripheral mononeuropathy in rat that produces disorders of pain sensation like those seen in man,” Pain 33:87-107, 1988. […] Vehicle animals receive the surgery and then receive vehicle rather than test compound. Animals were tested 1 hr, 24 h and 1 wk post-test compound or vehicle administration.
# Male 2-3 month old Sprague Dawley rats were used. Harlan was the supplier for all studies. Rats were housed in Lucite cages with aspen wood chip bedding, maintained on a 12:12 light:dark cycle (lights on at 5 AM), and given ad libitum access to Purina lab chow (USA) and tap water throughout the study.
# Rats were anesthetized using inhaled isoflurane (2.5%). Sciatic nerve chronic constriction nerve injury surgery was performed as previously described (Bennett and Xie, 1988). An incision (˜1.5 cm in length) was made with a scalpel blade dorsally through skin on the right hind limb, parallel and posterior to femur. Using a small pointed hemostat, the biceps femoris and gluteus superficialis muscles were separated. Using curved blunt forceps, the common sciatic nerve was isolated and exposed. For the mechanical analgesia studies, the whole sciatic nerve was ligated. Using hemostats/forceps and chromic gut (5-0), the nerve was loosely ligated with a square knot; 3 ligatures, 1 mm apart were placed on the nerve. […] Testing occurred approximately 2 weeks post-surgery.
# During testing, rats were acclimated to the surface of a suspended wire mesh grid (1 cm×1 cm, with the wire being 0.3 cm in diameter) for 15-20 min. Starting from the smallest, each Von Frey filament was pressed perpendicularly to the plantar surface of the affected (ipsilateral) hind paw until slightly bent and then held for 6 second. If an obvious hind paw withdrawal or a flinching behavior immediately after the withdrawal of the filament was not observed, the next larger filament was used in the same manner. In case of a response, a lower filament was used. This was repeated until six responses were collected.
# For all studies, animals were baselined prior to study start to test for allodynia (defined as a paw withdrawal threshold under 5). A subset of animals was tested with gabapentin (150 mg/kg, PO) to ensure at least 50% analgesia. Once it was confirmed animals were ready for study initiation, animals were balanced across groups. All study investigators were blind to treatment conditions. Animals were dosed with 0.1, 1 or 10 mg/kg of test compound via oral gavage (PO), control sets of animals were dosed with gabapentin (150 mg/kg, PO) or vehicle (0.5% Na-CMC in 0.9% sterile saline, PO). Testing occurred 1 h post-dosing with animals retested 24 hrs and 1 week post-dosing. The percent analgesia calculations for each animal were made using the following equation: % analgesia=[(log(x)−y)/((log (z)−y)]*100, where x=the paw withdrawal threshold for the drug-treated animal in grams, y=the average of the log(x) values for the vehicle treated group, and z=the paw withdrawal threshold for naïve animals in grams (historical value of 15 used). The results for Compound AD, where the percentage of analgesia is measured at 1 hour, 24 hours, and 1 week after compound administration are as follows: for 0.1 mg/kg dose: 38.7% at 1 h, 34.5% at 24 h, and 19.7% at 1 wk; for 1 mg/kg dose: 24.1% at 1 h, 26.5% at 24 h, and 13.2% at 1 wk; and for 10 mg/kg dose: 61.2% at 1 h, 45.1% at 24 h, and 39.5% at 1 wk.
# T1 sequence (Q13224 27-1484, species assumed, other chains not shown): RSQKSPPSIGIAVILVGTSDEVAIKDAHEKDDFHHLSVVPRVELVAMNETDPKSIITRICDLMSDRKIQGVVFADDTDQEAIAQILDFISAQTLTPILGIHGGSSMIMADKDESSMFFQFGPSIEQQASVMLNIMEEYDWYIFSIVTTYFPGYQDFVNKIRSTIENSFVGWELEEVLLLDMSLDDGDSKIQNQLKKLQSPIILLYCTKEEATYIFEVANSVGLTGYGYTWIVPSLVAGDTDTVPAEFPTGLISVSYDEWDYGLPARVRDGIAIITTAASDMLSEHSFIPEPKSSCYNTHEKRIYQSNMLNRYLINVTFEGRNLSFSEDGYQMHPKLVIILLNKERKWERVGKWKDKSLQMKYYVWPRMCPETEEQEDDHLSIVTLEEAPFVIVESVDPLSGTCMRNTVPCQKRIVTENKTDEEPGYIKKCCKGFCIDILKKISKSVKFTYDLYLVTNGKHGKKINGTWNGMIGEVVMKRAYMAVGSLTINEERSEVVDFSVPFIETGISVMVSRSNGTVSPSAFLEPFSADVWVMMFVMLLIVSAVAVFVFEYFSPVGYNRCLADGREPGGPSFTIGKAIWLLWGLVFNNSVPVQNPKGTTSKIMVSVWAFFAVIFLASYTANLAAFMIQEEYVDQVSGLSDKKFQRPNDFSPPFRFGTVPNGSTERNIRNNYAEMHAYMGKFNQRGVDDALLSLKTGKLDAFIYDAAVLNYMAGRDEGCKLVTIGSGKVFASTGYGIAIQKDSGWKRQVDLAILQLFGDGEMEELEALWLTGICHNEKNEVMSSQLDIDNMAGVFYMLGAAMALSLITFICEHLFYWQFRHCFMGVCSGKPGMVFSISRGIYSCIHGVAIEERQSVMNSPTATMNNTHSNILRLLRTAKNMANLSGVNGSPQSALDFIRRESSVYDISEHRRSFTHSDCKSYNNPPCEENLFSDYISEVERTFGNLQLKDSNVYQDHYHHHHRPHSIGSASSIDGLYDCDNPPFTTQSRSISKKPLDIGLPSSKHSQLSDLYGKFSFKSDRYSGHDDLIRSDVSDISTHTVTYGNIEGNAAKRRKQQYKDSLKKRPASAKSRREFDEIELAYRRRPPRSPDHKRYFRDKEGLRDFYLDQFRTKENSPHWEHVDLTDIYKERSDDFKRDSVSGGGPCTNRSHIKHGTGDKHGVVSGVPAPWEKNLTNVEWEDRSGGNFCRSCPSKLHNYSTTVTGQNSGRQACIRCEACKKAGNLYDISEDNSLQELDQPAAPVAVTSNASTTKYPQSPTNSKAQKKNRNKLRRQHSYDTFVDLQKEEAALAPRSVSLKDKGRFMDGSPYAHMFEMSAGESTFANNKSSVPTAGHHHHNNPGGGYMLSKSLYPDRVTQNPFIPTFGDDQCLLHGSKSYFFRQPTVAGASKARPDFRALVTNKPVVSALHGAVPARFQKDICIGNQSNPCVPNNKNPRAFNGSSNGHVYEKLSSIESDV
smiles,measurement,setting,value
"CC(C)C(=O)N1CCC2(CCCNC2=O)CC1 [Compound AD, 9-isobutyryl-2,9-diazaspiro[5.5]undecan-1-one]",NMDAR2B A: % maximal [3H]MK-801 binding relative to 1 mM glycine,NMDAR2B,+ (<100%=+)
same,EC50,NMDAR2B; read-out: NMDAR2B B: log EC50 (converted),< 1 nM
same,AUC(0-t),[1],5280 ng·h/mL
same,Cmax,[1],3790 ng/mL
same,clearance,[1],6.22 mL/min/kg
same,half-life,[1],6.37 h
same,Vd,[1]; read-out: Vss,0.92 L/kg
same,Microsomal (Human): percent of compound remaining,[2],100%
same,Plasma (Human): percent of compound remaining,Plasma stability (Human),98%
same,Plasma (Rat): percent of compound remaining,Plasma stability (Rat),95%
same,% analgesia,"Sprague Dawley rats; 0.1 mg/kg PO, 1 wk",19.7%
same,% analgesia,"Sprague Dawley rats; 0.1 mg/kg PO, 1 h",38.7%
same,% analgesia,"Sprague Dawley rats; 0.1 mg/kg PO, 24 h",34.5%
same,% analgesia,"Sprague Dawley rats; 1 mg/kg PO, 1 wk",13.2%
same,% analgesia,"Sprague Dawley rats; 1 mg/kg PO, 1 h",24.1%
same,% analgesia,"Sprague Dawley rats; 1 mg/kg PO, 24 h",26.5%
same,% analgesia,"Sprague Dawley rats; 10 mg/kg PO, 1 wk",39.5%
same,% analgesia,"Sprague Dawley rats; 10 mg/kg PO, 1 h",61.2%
same,% analgesia,"Sprague Dawley rats; 10 mg/kg PO, 24 h",45.1%
